Source: ChEMBL document CHEMBL1201862, “PubChem BioAssay data set” (2004)
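Cultured in 96-well plates, cells were exposed to test compound for 48 hours across five concentrations. At the GI50, growth is halved.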 Activity calls are given as the source filed them. Cut-off read from the data, not from the text of the source: active = GI50 up to about 1.1 µM and inactive = higher.

What was measured:
Experiment in all cases: NCI anticancer screen, dose series, 48 h
[1] = tested on: A549
[2] = tested on: ACHN
[3] = tested on: COLO 205
[4] = tested on: HCT-116
[5] = tested on: HOP-62
[6] = tested on: Hs-578T
[7] = tested on: IGROV-1
[8] = tested on: LOX IMVI
[9] = tested on: OVCAR-8
[10] = tested on: RPMI-8226
[11] = tested on: SK-MEL-2
[12] = tested on: SK-MEL-5
[13] = tested on: SK-OV-3
[14] = tested on: SW-620
[15] = tested on: T47D
[16] = tested on: TK-10
[17] = tested on: U-251
[18] = tested on: UACC-62
[19] = tested on: UO-31
[20] = tested on: SR

Row | SMILES | GI50 [1] | GI50 [2] | GI50 [3] | GI50 [4] | GI50 [5] | GI50 [6] | GI50 [7] | GI50 [8] | GI50 [9] | GI50 [10] | GI50 [11] | GI50 [12] | GI50 [13] | GI50 [14] | GI50 [15] | GI50 [16] | GI50 [17] | GI50 [18] | GI50 [19] | GI50 [20]
1 | CC1=C(C(=O)OC(C)(C)C)C(c2ccc([N+](=O)[O-])cc2)C(C(=O)OC(C)(C)C)=C(C)N1 | 24.9 µM (inactive) | 21.4 µM (inactive) | 22.6 µM (inactive) | 20.5 µM (inactive) | 23.4 µM (inactive) | 20.2 µM (inactive) | 16.8 µM (inactive) | 18.5 µM (inactive) | 20.4 µM (inactive) | 17 µM (inactive) | 28.6 µM (inactive) | 18.2 µM (inactive) | 32.4 µM (inactive) | 26.9 µM (inactive) | 14.7 µM (inactive) | 20.1 µM (inactive) | 21.1 µM (inactive) | 16.6 µM (inactive) | 19.4 µM (inactive) | –
2 | COc1ccc(/C=C2\N=C(SC)N(C)C2=O)cc1 | 63.2 µM (inactive) | 38.8 µM (inactive) | 94.6 µM (inactive) | 75.2 µM (inactive) | 96.8 µM (inactive) | 22.8 µM (inactive) | 48 µM (inactive) | 75.2 µM (inactive) | > 100 µM (inactive) | 50 µM (inactive) | > 100 µM (inactive) | 42.3 µM (inactive) | 97.9 µM (inactive) | 80.2 µM (inactive) | 42.6 µM (inactive) | > 100 µM (inactive) | 89.7 µM (inactive) | 70.3 µM (inactive) | 27 µM (inactive) | –
3 | CCOC(=O)Nc1nn[nH]c1Cl | > 100 µM (inactive) | – | > 100 µM (inactive) | > 100 µM (inactive) | > 100 µM (inactive) | > 100 µM (inactive) | > 100 µM (inactive) | > 100 µM (inactive) | > 100 µM (inactive) | > 100 µM (inactive) | > 100 µM (inactive) | > 100 µM (inactive) | > 100 µM (inactive) | > 100 µM (inactive) | > 100 µM (inactive) | > 100 µM (inactive) | > 100 µM (inactive) | > 100 µM (inactive) | > 100 µM (inactive) | –
4 | CC(CO)(CO)N1C(=O)C2C3c4ccccc4C(c4ccccc43)C2C1=O (stereo unspecified) | > 100 µM (inactive) | > 100 µM (inactive) | > 100 µM (inactive) | > 100 µM (inactive) | > 100 µM (inactive) | > 100 µM (inactive) | > 100 µM (inactive) | – | > 100 µM (inactive) | – | > 100 µM (inactive) | > 100 µM (inactive) | > 100 µM (inactive) | > 100 µM (inactive) | > 100 µM (inactive) | > 100 µM (inactive) | > 100 µM (inactive) | > 100 µM (inactive) | 65.2 µM (inactive) | > 100 µM (inactive)
5 | Cc1ccccc1NC(=O)C(=O)Cc1cnc2ccccc2n1 | > 100 µM (inactive) | > 100 µM (inactive) | > 100 µM (inactive) | > 100 µM (inactive) | – | > 100 µM (inactive) | > 100 µM (inactive) | > 100 µM (inactive) | > 100 µM (inactive) | > 100 µM (inactive) | > 100 µM (inactive) | > 100 µM (inactive) | > 100 µM (inactive) | > 100 µM (inactive) | > 100 µM (inactive) | > 100 µM (inactive) | > 100 µM (inactive) | > 100 µM (inactive) | > 100 µM (inactive) | –
6 | C[C@]12CCC(=O)C=C1CC[C@@H]1C2CC[C@]2(C)c3nn(-c4ccc(F)cc4)nc3CC12 (stereo partly specified) | > 100 µM (inactive) | > 100 µM (inactive) | > 100 µM (inactive) | > 100 µM (inactive) | 76.2 µM (inactive) | 64.6 µM (inactive) | > 100 µM (inactive) | – | > 100 µM (inactive) | – | – | > 100 µM (inactive) | > 100 µM (inactive) | > 100 µM (inactive) | > 100 µM (inactive) | > 100 µM (inactive) | 53.2 µM (inactive) | > 100 µM (inactive) | > 100 µM (inactive) | > 100 µM (inactive)
7 | COc1ccc2c(c1)C(N)CC2=O (stereo unspecified) | 19.1 µM (inactive) | > 100 µM (inactive) | > 100 µM (inactive) | > 100 µM (inactive) | > 100 µM (inactive) | > 100 µM (inactive) | > 100 µM (inactive) | – | > 100 µM (inactive) | > 100 µM (inactive) | 27 µM (inactive) | > 100 µM (inactive) | > 100 µM (inactive) | > 100 µM (inactive) | > 100 µM (inactive) | > 100 µM (inactive) | > 100 µM (inactive) | > 100 µM (inactive) | > 100 µM (inactive) | –
8 | C=C(C1=CC(=O)C(C)(C)O1)[C@@H]1CC=C([C@@H]2CC[C@H]3[C@@]2(C)CC[C@H]2C(C)(C)C(=O)[C@H](O)C[C@]32C)[C@H](O)O1 | 13.6 µM (inactive) | 1.66 µM (inactive) | 1.8 µM (inactive) | 1.63 µM (inactive) | 3.15 µM (inactive) | 3.27 µM (inactive) | 2.18 µM (inactive) | 1.81 µM (inactive) | 2.07 µM (inactive) | 0.342 µM (active) | 2.2 µM (inactive) | 11.7 µM (inactive) | 14.6 µM (inactive) | 1.66 µM (inactive) | 1.44 µM (inactive) | 1.19 µM (inactive) | 1.62 µM (inactive) | 4.88 µM (inactive) | 1.53 µM (inactive) | –
